± gives the standard deviation of the averaged measurements.
What was measured:
Assay in all cases: level (log10 ratio to DMSO vehicle control); higher = higher biomarker level / cell amount than vehicle control
Settings in all cases: in DMSO
[1] = compound: O=C(O)CCC(F)(F)C(F)(F)C(F)(F)C(F)(F)C(F)(F)F [2H,2H,3H,3H-Perfluorooctanoic acid]
Protocol: (§1)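 BioMAP Diversity Plus panel of 12 human primary cell co-culture systems (3C, 4H, LPS, SAg, BT, BF4T, BE3C, CASM3C, HDF3CGF, KF3CT, MyoF, Mphg). Compounds were added 1 h before stimulation and left for 24 h (MyoF 48 h; BT 72 h for soluble read-outs or 6 d for IgG). Biomarkers were read by ELISA, cytotoxicity by SRB, PBMC viability and proliferation by Alamar Blue. Each well value was divided by the mean of 8 DMSO control wells on the same plate and log10 transformed; duplicate blinded samples were tested at 4 concentrations.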

[2] = compound: OCC(F)(F)C(F)(F)C(F)(F)C(F)(F)C(F)(F)C(F)F [1H,1H,7H-Dodecafluoro-1-heptanol]
Protocol: as §1

[3] = compound: O=S(=O)(O)C(F)(F)C(F)(F)C(F)(F)C(F)(F)F [Perfluorobutanesulfonic acid]
Protocol: as §1

| Test System | level (log10) ([1]; 6700 nM) | level (log10) ([1]; 20000 nM) | level (log10) ([1]; 60000 nM) | level (log10) ([2]; 6700 nM) | level (log10) ([2]; 20000 nM) | level (log10) ([2]; 60000 nM) | level (log10) ([3]; 6700 nM) | level (log10) ([3]; 20000 nM) | level (log10) ([3]; 60000 nM) |
| --- | --- | --- | --- | --- | --- | --- | --- | --- | --- |
| HDF3CGF:CD54/ICAM-1 | -0.0095 ± 0.0064 | -0.0215 ± 0.019 | -0.036 ± 0.023 | 0.006 ± 0.0085 | 0.0015 ± 0.012 | -0.003 ± 0.0099 | -0.009 ± 0.016 | -0.0145 ± 0.0021 | 0.003 ± 0.011 |
| HDF3CGF:CD106/VCAM-1 | 0.046 ± 0.082 | 0.044 ± 0.088 | 0.0435 ± 0.071 | 0.014 ± 0.0014 | 0.011 ± 0.0085 | -0.0045 ± 0.00071 | -0.02 ± 0.013 | -0.01 ± 0.0014 | -0.025 ± 0.058 |
| HDF3CGF:CXCL8/IL-8 | -0.014 ± 0.014 | -0.009 ± 0.014 | -0.007 ± 0.025 | 0.0045 ± 0.016 | 0.0035 ± 0.019 | 0.0055 ± 0.0035 | 0.0025 ± 0.0078 | -0.002 ± 0.0057 | -0.0025 ± 0.0021 |
| HDF3CGF:CXCL9/MIG | -0.01 ± 0.047 | -0.019 ± 0.047 | -0.036 ± 0.044 | 0.0015 ± 0.013 | -0.022 ± 0.038 | 0.011 ± 0.011 | -0.01 ± 0.0085 | -0.0145 ± 0.0092 | -0.0035 ± 0.005 |
| HDF3CGF:CXCL10/IP-10 | -0.0015 ± 0.0092 | 0.02 ± 0.0014 | -0.0205 ± 0.054 | -0.0015 ± 0.015 | -0.0055 ± 0.0021 | -0.011 ± 0.018 | -0.0075 ± 0.0078 | -0.0105 ± 0.005 | -0.0195 ± 0.0021 |
| HDF3CGF:CXCL11/I-TAC | -0.0455 ± 0.12 | -0.084 ± 0.11 | -0.0825 ± 0.11 | 0.011 ± 0.0028 | 0 ± 0.018 | -0.0015 ± 0.011 | -0.0235 ± 0.00071 | 0.005 ± 0.0028 | -0.005 ± 0.0014 |
| HDF3CGF:Collagen I | 0.0065 ± 0.079 | -0.004 ± 0.078 | 0.0195 ± 0.14 | -0.0095 ± 0.011 | -0.019 ± 0.027 | 0.0025 ± 0.08 | 0.0175 ± 0.037 | -0.003 ± 0.025 | 0.0345 ± 0.043 |
| HDF3CGF:Collagen III | -0.064 ± 0.055 | -0.076 ± 0.033 | -0.039 ± 0.061 | -0.002 ± 0.018 | -0.0065 ± 0.0078 | 0.0145 ± 0.015 | -0.013 ± 0.048 | 0.035 ± 0.016 | 0.047 ± 0.016 |
| HDF3CGF:EGFR | -0.055 ± 0.025 | -0.0435 ± 0.037 | -0.0205 ± 0.03 | -0.004 ± 0.025 | -0.015 ± 0.03 | 0.0075 ± 0.011 | 0.0105 ± 0.005 | -0.032 ± 0.048 | -0.0205 ± 0.032 |
| HDF3CGF:M-CSF | -0.044 ± 0.089 | -0.067 ± 0.086 | -0.051 ± 0.12 | -0.0025 ± 0.018 | -0.0055 ± 0.00071 | -0.0045 ± 0.0035 | 0.011 ± 0.0085 | 0.0045 ± 0.0035 | 0.0025 ± 0.005 |
| HDF3CGF:MMP-1 | -0.009 ± 0.023 | -0.0385 ± 0.05 | -0.0675 ± 0.076 | 0.0115 ± 0.015 | 0.0105 ± 0.0021 | 0.012 ± 0.02 | 0.0085 ± 0.011 | 0.002 ± 0.013 | -0.0165 ± 0.036 |
| HDF3CGF:PAI-I | 0.0145 ± 0.016 | -0.004 ± 0.011 | -0.0085 ± 0.0078 | -0.008 ± 0.0085 | -0.004 ± 0.02 | 0.006 ± 0.047 | -0.017 ± 0.034 | 0.007 ± 0.045 | -0.0075 ± 0.03 |
| HDF3CGF:Proliferation 72hr | -0.002 ± 0.054 | 0.007 ± 0.033 | 0.023 ± 0.018 | 0.0045 ± 0.066 | 0 ± 0.072 | 0.003 ± 0.044 | -0.0045 ± 0.013 | -0.0195 ± 0.015 | 0.0155 ± 0.05 |
| HDF3CGF:SRB | -0.006 ± 0.034 | 0.0185 ± 0.04 | 0.077 ± 0.028 | -0.0345 ± 0.033 | -0.007 ± 0.05 | -0.0055 ± 0.057 | 0.018 ± 0.03 | 0.023 ± 0.013 | 0.004 ± 0.033 |
| HDF3CGF:TIMP-1 | -0.019 ± 0.064 | -0.01 ± 0.11 | -0.047 ± 0.17 | -0.015 ± 0.027 | -0.0055 ± 0.033 | 0.011 ± 0.044 | -0.032 ± 0.064 | 0.0125 ± 0.0078 | 0.0195 ± 0.011 |
| HDF3CGF:TIMP-2 | -0.0325 ± 0.021 | -0.04 ± 0.023 | 0.005 ± 0.047 | -0.0025 ± 0.0092 | -0.0035 ± 0.0021 | 0.0025 ± 0.022 | 0.0135 ± 0.037 | 0.017 ± 0.023 | 0.031 ± 0.014 |
| KF3CT:CCL2/MCP-1 | -0.026 | 0.0135 ± 0.016 | -0.0235 ± 0.069 | -0.0055 ± 0.021 | -0.0155 ± 0.015 | 0.004 ± 0.028 | -0.032 ± 0.017 | -0.0095 ± 0.026 | 0.0135 ± 0.083 |
| KF3CT:CD54/ICAM-1 | -0.016 ± 0.0085 | -0.0205 ± 0.018 | -0.0285 ± 0.023 | -0.002 ± 0.016 | -0.0115 ± 0.0064 | 0.003 ± 0.017 | 0.0015 ± 0.029 | 0.0225 ± 0.012 | 0.0005 ± 0.00071 |
| KF3CT:CXCL8/IL-8 | -0.017 ± 0.042 | -0.009 ± 0.028 | -0.0295 ± 0.0021 | 0.017 ± 0.0028 | 0.01 ± 0.025 | 0.0165 ± 0.016 | -0.031 ± 0.02 | -0.002 ± 0.0042 | 0.004 ± 0.0071 |
| KF3CT:CXCL9/MIG | -0.004 ± 0.011 | 0.0025 ± 0.0092 | 0.0075 ± 0.00071 | 0.0135 ± 0.012 | 0.0065 ± 0.0035 | 0.0015 ± 0.018 | 0.0185 ± 0.029 | 0.021 ± 0.017 | 0.0345 ± 0.0078 |
| KF3CT:CXCL10/IP-10 | -0.0045 ± 0.0021 | -0.0125 ± 0.0078 | -0.0185 ± 0.011 | 0.004 | 0 ± 0.0014 | -0.0055 ± 0.005 | 0.0305 ± 0.025 | 0.0385 ± 0.028 | 0.0405 ± 0.019 |
| KF3CT:IL-1alpha | 0.007 ± 0.0085 | -0.0055 ± 0.016 | -0.0345 ± 0.029 | -0.016 ± 0.025 | -0.0195 ± 0.032 | -0.0115 ± 0.043 | -0.009 ± 0.0042 | -0.0085 ± 0.0078 | -0.006 ± 0.025 |
| KF3CT:MMP-9 | -0.0235 ± 0.021 | -0.018 ± 0.02 | 0.026 ± 0.0057 | 0.0075 ± 0.005 | -0.003 ± 0.011 | 0.011 ± 0.0014 | -0.0115 ± 0.0021 | -0.008 ± 0.013 | -0.0145 ± 0.005 |
| KF3CT:PAI-I | -0.0015 ± 0.00071 | -0.0065 ± 0.0021 | -0.017 ± 0.0085 | -0.0075 ± 0.0092 | -0.0035 ± 0.011 | 0 ± 0.0042 | -0.014 ± 0.048 | 0.003 ± 0.0099 | -0.007 ± 0.027 |
| KF3CT:SRB | -0.006 ± 0.0014 | -0.0015 ± 0.005 | 0.006 ± 0.0085 | -0.0025 ± 0.0064 | -0.001 ± 0.0042 | 0.002 ± 0.0085 | 0.002 ± 0.0042 | 0 ± 0.0014 | 0 ± 0.0014 |
| KF3CT:TIMP-2 | -0.011 | -0.02 ± 0.024 | 0.015 ± 0.0099 | 0.0015 ± 0.005 | 0.0015 ± 0.0021 | 0.0015 ± 0.0064 | -0.0265 ± 0.005 | -0.0045 ± 0.029 | -0.0135 ± 0.022 |
| KF3CT:uPA | -0.008 ± 0.013 | -0.0095 ± 0.033 | -0.004 ± 0.041 | 0.001 ± 0.011 | -0.0155 ± 0.013 | 0.0035 ± 0.015 | -0.0275 ± 0.029 | -0.0215 ± 0.00071 | -0.0035 ± 0.00071 |
| MyoF:CD106/VCAM-1 | -0.0015 ± 0.019 | -0.0115 ± 0.021 | 0.0005 ± 0.012 | -0.014 ± 0.021 | -0.0115 ± 0.0092 | -0.019 ± 0.016 | -0.004 ± 0.0028 | 0.0085 ± 0.0021 | 0.0155 ± 0.016 |
| MyoF:CXCL8/IL-8 | -0.032 ± 0.0042 | -0.0215 ± 0.005 | -0.018 | -0.034 ± 0.051 | 0 ± 0.1 | 0.0265 ± 0.063 | 0.007 ± 0.042 | 0.0425 ± 0.021 | 0.0665 ± 0.0064 |
